The text below walks through data of US8680137B2, “Agents and methods for treating ischemic and other diseases” (Nono Inc., priority 2009, dated 2014).

Assay [1] has as its system HCT-116 colon cancer. Put plainly: Cancer cell proliferation, HCT-116. Format: cell-based. To be noted: for IC50: Homo sapiens. As to the method:
(§1) To determine the breadth of efficacy in cancers, we examined the efficacy of a range of TRPM7 inhibitors for their ability to inhibit cell proliferation in cancer cell lines. Representative figures are included as examples.
(§2) Cells (Table 1) were grown to 70% confluency, trypsinized, counted, and seeded in 96-well flat-bottom plates at a final concentration of 2.5×10^3-5.0×10^3 cells/well in growth media containing 5% FBS (Day 0). Other well sizes and cell densities were used successfully as well. Cells were allowed to incubate in growth media for 24 hours to allow for maximum adhesion. Treatment with the test agent began on Day 1 and continued for 72 hours either with or without retreatment. At the 72 hour time point, viable cell numbers are quantified by the CellTiter-Glo® cell viability assay as described above, or using standard MTT, SRB or BrDU assays. Experiments were repeated at least twice with the same concentrations to determine growth inhibitory activity.
Data Collection—For the cell proliferation studies, data from each experiment was collected and expressed as % Cell Growth using the following calculation: % Cell Growth=(ftest/fvehicle)×100 Where ftest is the luminescent signal of the tested sample, and fvehicle is the luminescence of the vehicle in which the drug is dissolved (or appropriate measure for the other viability/proliferation measures). Dose response graphs and IC50 values were generated using standard software using the following variable slope equation: […]

The subject of assay [2] is B16F10 melanoma. The assay is described as follows: Murine tumor model of B16F10 melanoma. Format: in vivo, mouse. To be noted: intravenous 20 mg/kg once daily. As to the method: To evaluate the efficacy of TRPM7 inhibitors in vivo, M6 was selected to for a pilot evaluation of its ability to reduce tumor formation in a murine tumor model of B16F10 melanoma and a RXF-393 human renal cell carcinoma xenograft model of tumor proliferation. […] For each tumor model, an appropriate number of cells were injected into the right flank (˜3-5 million cells per animal in 0.1 ml 50% matrigel/50% media). When tumor sizes reached 100-150 mg, animals were randomized into control (vehicle only), positive control or M6. M6 was given by intravenous injection to 20 mg/kg once daily. Tumors were measured and the weights were calculated by standard means.

For assay [3], the system named is SW13 adrenal carcinoma cells. The assay is described as follows: Cancer cell proliferation, SW13. To be noted: SW13, FIG. 79. It is filed as cell-based. As to the method: as §1, §2
Data Collection—For the cell proliferation studies, data from each experiment was collected and expressed as % Cell Growth using the following calculation: % Cell Growth=(ftest/fvehicle)×100 Where ftest is the luminescent signal of the tested sample, and fvehicle is the luminescence of the vehicle in which the drug is dissolved (or appropriate measure for the other viability/proliferation measures). […]

Where two headings read alike, the source gives them in different places.

Usually IC50 stands for the concentration at which inhibition is half-maximal. `COc1cc2c(cc1OC)C(c1sc3ccccc3c1Cl)=NCC2` [Compound M6]: the “Demonstrated Reduction of Proliferation at or below 10 μM Inhibitor concentration” value in assay [1] (HCT-116, >20% inhibition at 48-96 hours, MTT, SRB, luminescence or BrDU) is on record as “HCT-116”. Besides, the IC50 in assay [1] (HCT-116, 72 h, HCT-116, Exp 1, 72 hours, read-out: IC50) stood at 14.7 µM; in assay [1] (HCT-116, 72 h, HCT-116, Exp 2, 72 hours, read-out: IC50), 17.2 µM; in assay [1] (HCT-116, HCT-116, mean of Exp 1 and Exp 2, read-out: Mean IC50), 16 µM. The melanoma tumor growth result in assay [2] is “reduces tumor growth”. Moreover, the “proliferation (BrDU incorporation)” value in assay [3] was “significantly reduce proliferation”.
